{
  "source": "patent US6416965B2",
  "about": "“Screening methods for presqualene disphosphate analogs” (Brigham and Women's Hospital, priority 1997, dated 2002)",
  "key": {"neutrophils [1]": {"system": "neutrophils", "experiment": "Neutrophil homotypic adhesion (aggregation, light transmittance)", "assay_type": "cell-based, human", "experimental": "(§1) Neutrophils (10^7/500 μl) were electroporated (1.65 kV/cm, 250 μF, Ω∞, Invitrogen Electroporator VI) at 0° C. in the presence of 10−^9-10−^6 M compound VI, VIII, FDP, FMP, squalene or vehicle (ethanol 0.2%). After electroporation, cells, in cytochrome c (0.7 mg/ml), were exposed (10 minutes, 37° C.) to either cytochalasin b (5 μg/mL) and FMLP (10^−7 M)(a) or PMA ((10^−7 M)(b) and supernatants monitored at […]. Electroporation gave a 49.9% reduction in FMLP-stimulated NADPH oxidase compared to naive cells. Values (FIGS. 4a and 4b) represent the mean±SEM for n≧3, d≧6. For adhesion (FIGS. 4c and 4d), changes in light transmittance were monitored (as in Fiore, S., Nicolaou, K. C., Caulfield, T., Kataoka, H. & Serhan, C. N. Biochem. J. 266, 25-31 (1990), the teachings of which are incorporated herein by reference) after addition of compounds VI, VIII (1.6 μM) or vehicle (0.5 min) and FMLP (0.5-5 μM) (2.5 min). Cell viability remained>99%. Values represent the mean±SEM for n=3, d=9. 1,4,5-inositol-triphosphate levels were determined (Amersham) in fresh PMN (10^7 cells) exposed (5 minutes, 37° C.) to compound VI, compound VIII (1 μM) or vehicle and stimulated with FMLP (10^−7M, 37° C.) (as in FIG. 4e). % Inhibition after 10 second exposure to FMLP is reported as mean±SEM for n=4, d≧8. *p <0.05 in Student's paired t-test compared with control, while “NS” indicates no significant change compared to incubations in the presence of vehicle (ethanol 0.2%) alone. Stereochemistry of PSDP and PSMP (FIG. 4f) were assigned by routine methods (Poulter, C. D. and Rilling, H. C. Acc. Chem. Res. 11, 307-313, (1978), the teachings of which are hereby incorporated by reference)."}, "neutrophil sonicates": {"system": "neutrophil sonicates", "conditions": "Levy et al., Nature 1997; cited from earlier work"}, "neutrophils [2]": {"system": "neutrophils", "experiment": "fMLP-stimulated intracellular calcium mobilization in FURA-2 loaded neutrophils", "assay_type": "cell-based, human", "conditions": "PSDP 1 μM, 5 min 37° C.; 1 nM fMLP; EDTA 5 mM", "experimental": "Inositol trisphosphate is known to be an important intracellular mediator of calcium mobilization from intracellular stores, a critical event in cellular activation (Exton, JH, Annual Review of Pharmacology and Toxicology 1996; 36:481). In order to determine the functional importance of the PSDP-mediated reduction in IP3 levels, fMLP-stimulated intracellular calcium mobilization in the presence of polyisoprenyl phosphates was measured. FURA-2 (1 μM) loaded neutrophils (10×10^6/2 ml) in the presence of EDTA (5 mM) were exposed (5 min, 37° C.) to PSDP (10−^5-10−^6 M) or EtOH (0.1%), followed by 1 nM fMLP. […] This inhibition was concentration dependent FIG. 7 and significant (n=3, mean±SEM, *P<0.05 by Student's t-test)."}, "[3]": {"system": "electroporated neutrophils", "experiment": "Superoxide anion generation (NADPH oxidase activity) by electroporated neutrophils", "assay_type": "cell-based, human", "source_text": "To test the impact of compounds VI and VIII on neutrophil responses, the isolated lipids were introduced into neutrophils by electroporation prior to determining NADPH oxidase activity. […] Prenyl cysteine analogues can disrupt G-protein interaction with activated FMLP receptors (Scheer, A. & Gierschik, P. Biochemistry. 34,4952-4961 (1995), the teachings of which are incorporated herein by reference); therefore to determine compound VI's level of action, neutrophil superoxide anion generation was examined in the presence of phorbol 12-myristate 13-acetate (PMA), a potent trigger for O2- production which bypasses cell surface receptors to stimulate protein kinase C and subsequent NADPH assembly (see for example, Baggiolini, M., Boulay, F., Badwey, J. A. & Curnutte, J. T. FASEB J. 7, […] (1993); FIG. 3c).\nAfter electroporation, cells in cytochrome c (0.7 mg/ml) were exposed (10 min, 37° C.) to PMA (10^−7 M), FMLP (10^−7 M) plus cytochalasin b (15 μg/ml), compound VI (1 μM) or compound VIII (1 μM) and supernatants monitored at 550 nm. Values represent the mean±SEM for n≧4.\nas §1"}, "Gst-Grb2 fusion protein": {"target": "T1, Gst-Grb2 fusion protein (Homo sapiens, UniProt P62993)", "T1 construct": "purchased Upstate Biotechnology 14-128", "T1 sequence (P62993 whole entry, the tested form may be a part)": "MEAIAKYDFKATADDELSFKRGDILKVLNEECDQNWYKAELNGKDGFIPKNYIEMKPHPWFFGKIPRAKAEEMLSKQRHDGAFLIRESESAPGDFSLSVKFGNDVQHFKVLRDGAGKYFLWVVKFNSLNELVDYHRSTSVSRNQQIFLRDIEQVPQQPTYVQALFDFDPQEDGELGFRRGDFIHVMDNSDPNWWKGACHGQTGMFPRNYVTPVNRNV", "experiment": "PSDP equilibrium binding assay to GST-GRB2", "method": "Equilibrium binding was determined for ^32PO4-PSDP (1 μM) to the adaptor protein, Grb2, which is known to carry two SH3 domains and one SH2 domain (Lowenstein, EJ, et al., Cell, 1992; 70:431). […] Bound material was separated from unbound by spin filtration (0.2 μm) and quantitated by scintillation counting.\nTo 100 μl of 0.9% NaCl was added 2 μg GST-GRB2 with 0-100 μg compound (e.g., delipidated human serum albumin, SH3-bearing SOS peptide or unlabeled PSDP) to be tested. The samples were prepared directly in the top of PGC spin filter tubes.\nTo the solution was added radiolabeled-PSDP in 1 μl ethanol. The mixture was vortexed and incubated at 37° C. for 30 minutes. After the incubation period, the sample was centrifuged at 2000 rpm at 25° C. for 3 minutes. […] The filter was removed, placed in a scintillation vial and the amount of radioactivity bound to the trapped agarose complex (i.e., bound material) was determined.\n1 ml of CHCl3:MeOH (2:1) was added to the filtrate (a clear interface should be evident). […] At this stage, dependent upon the amount of radioactivity present, the radioactivity of the sample was determined either in scintillation fluid or by phosphoimage after TLC. […]\nBound material is reflected in the filtrate by loss of radioactivity when radiolabeled material is incubated in the presence of the GRB2 complex compared to the absence of the agarose complex. […]"}},
  "data": [
    {"compound": "CC(C)=CCC/C(C)=C/CC/C(C)=C/C1C(COP(=O)(O)OP(=O)(O)O)C1(C)CC/C=C(\\C)CCC=C(C)C", "note": "(stereo in doubt) [Compound VI, presqualene diphosphate]", "values": [
      {"measurement": "stimulation of adhesion by the compound alone", "setting": "neutrophils [1]; no agonist", "value": "neither compound VI nor VIII alone stimulated"},
      {"measurement": "inhibition of FMLP-stimulated homotypic adhesion", "setting": "neutrophils [1]; μM levels", "value": "inhibited"},
      {"measurement": "inhibition of the aggregatory response to FMLP (homotypic adhesion)", "setting": "neutrophils [1]; μM levels (1.6 μM), FMLP 0.5-5 μM, intact cells, p<0.001", "value": 63, "unit": "%"},
      {"measurement": "inhibition of phosphatidate mediated superoxide anion generation in human neutrophil sonicates", "setting": "neutrophil sonicates", "value": "inhibited"},
      {"measurement": "inhibition of fMLP-stimulated [Ca2+]i mobilization", "setting": "neutrophils [2]", "value": "inhibition"},
      {"measurement": "inhibition of PMA activated superoxide anion generation at 10 nM", "setting": "[3]; compound 10 nM, PMA 100 nM", "value": "significant inhibition still present"},
      {"measurement": "inhibition of PMA activated superoxide anion generation", "setting": "[3]; compound 1 μM, PMA 100 nM", "value": 44, "unit": "%"},
      {"measurement": "inhibition of neutrophil superoxide anion generation", "setting": "[3]; nM-μM amounts", "value": "inhibited"},
      {"measurement": "inhibition of the FMLP-triggered generation of superoxide anion", "setting": "[3]; nM-μM quantities introduced by electroporation, FMLP 10^-7 M plus cytochalasin b", "value": 60, "unit": "%"},
      {"measurement": "stimulation of O2- production by the compound alone", "setting": "[3]; no agonist, 1 μM (FIG. 3c)", "value": "neither compound VI nor VIII alone stimulated"},
      {"measurement": "binding of radiolabeled PSDP to Gst-Grb2 complexed to agarose beads", "setting": "Gst-Grb2 fusion protein; 32PO4-PSDP 1 μM, 20 min 37° C.", "value": "bound"},
      {"measurement": "competition of radioligand (32PO4-PSDP) off Gst-Grb2", "setting": "Gst-Grb2 fusion protein; excess unlabeled PSDP, albumin 50 μg, Sos 50 μg", "value": "could be competed off"}
    ]}
  ]
}
